Assay results from US20220009987A9, “HUMAN RESISTIN COMPOSITIONS AND METHODS OF TREATING TLR4-MEDIATED DISEASE AND INFECTION” (THE REGENTS OF THE UNIVERSITY OF CALIFORNIA, priority 2017, published 2022).

What was measured:
human TLR4 = human TLR4 (Homo sapiens, UniProt O00206); assay: Pull-down assay with His-tagged human TLR4; type: binding; conditions: pre-incubation of His-TLR4 with 500 ng/ml N-peptide, anti-Flag blot
Experimental: Pull-down Assay. 1 μg/ml protein His-tagged MBP, human TLR4 and human CAP1 were added to nickel-nitrilotriacetic acid-agarose beads (Invitrogen) in binding buffer (50 mM NaH2PO4, 500 mM NaCl, 10 mM Imidazole, pH 8.0) and mixed for 1 hour at 4° C., followed by washing and 1 h incubation at 4° C. with hRetn (E. coli-derived, Peprotech or 293T cell-derived, LifeSpan Biosciences) in binding buffer. Beads were washed in wash buffer (50 mM NaH2PO4, 500 mM NaCl, 20 mM Imidazole, pH 8.0), and complex protein eluted with elution buffer (50 mM NaH2PO4, 500 mM NaCl, 250 mM Imidazole, pH 6.0). His-MBP, His-TLR4 and His-CAP1 were detected by anti-His antibody (Abcam), and hRetn was detected by anti-hRetn antibody (donated by Mitchell Lazar) by Western Blot. For the N-peptide binding experiment, 1 μg/ml His-tagged human TLR4 with 500 ng/ml N-peptide or 10% TFE control was added to the beads in binding buffer and mixed for 30 min at 4° C., followed by co-immunoprecipitation using 1 μg/ml Flag-hRetn (LifeSpan Biosciences), anti-His or anti-Flag (Sigma).

CD14+CD11b+ monocytes = assay: Competitive resistin/LPS binding assay on human PBMCs (flow cytometry); type: cell-based; conditions: for LPS binding to CD14+CD11b+ monocytes: pre-incubation before LPS-biotin, on ice
Experimental: (§1) Human PBMCs. Human buffy coat was purchased from Zen-bio. Buffy coat was overlaid on top of Histopaque-1077 and spun at 700g at 25° C. with no brake and PBMCs were recovered from the interphase. PBMCs were plated in 96-well plates and stimulated with mammalian-derived human resistin (1 μg/mL, LifeSpan Biosciences) or hRetn N-peptide (1 μg/mL). After 24 hours, ultrapure LPS (100 ng/mL, Invivogen) was added and supernatants recovered for ELISA at 24 hours. Where indicated, cells were incubated for 4 hours with STAT3 (5, 15-DPP, 50 μM) or TBK1 (BX-795, 1 μM) inhibitors prior to hRetn treatment. For the hRetn competitive binding assay, 1×10^6 cells were incubated with recombinant hRetn (0.5 μg), washed in PBS then incubated with 0.5 μg LPS-biotin (incubations were 30 minutes on ice). Cells were washed in FACS buffer, treated with Fc block, and stained with BV605-conjugated streptavidin and α-human primary antibodies: CD14 (clone M5E2), CD11 b (clone M1/70) and MD2/TLR4 (clone HTA125) purchased from Affymetrix.

human PBMCs = assay: Human PBMC functional assay, LPS-induced cytokine secretion (ELISA); type: cell-based; conditions: human PBMC, pre-treatment then LPS 100 ng/mL
Experimental: as §1
Cytokine Quantification. Sandwich ELISAs were performed using capture and biotinylated antibodies for human resistin (Peprotech), IL-10 and TNFα (BD Biosciences) according to manufacturer's instructions. Detection was performed with streptavidin-peroxidase (Jackson ImmunoResearch) and TMB peroxidase substrate (BD Biosciences), followed by addition of 2N H2SO4. Optical density (OD) was captured at 450 nm. Samples were compared to serial-fold dilution of recombinant protein. For Luminex, inflammatory cytokine kits (Affymetrix) were run according to manufacturer's instructions and quantified on Luminex MagPix (Luminex Corp.). For cytokine bead array, cytokine kits from BD Bioscience were run according to manufacturer's instructions on BD LSRII and analyzed using FCAP Array Software.

human TLR4, sequence (O00206 24-839): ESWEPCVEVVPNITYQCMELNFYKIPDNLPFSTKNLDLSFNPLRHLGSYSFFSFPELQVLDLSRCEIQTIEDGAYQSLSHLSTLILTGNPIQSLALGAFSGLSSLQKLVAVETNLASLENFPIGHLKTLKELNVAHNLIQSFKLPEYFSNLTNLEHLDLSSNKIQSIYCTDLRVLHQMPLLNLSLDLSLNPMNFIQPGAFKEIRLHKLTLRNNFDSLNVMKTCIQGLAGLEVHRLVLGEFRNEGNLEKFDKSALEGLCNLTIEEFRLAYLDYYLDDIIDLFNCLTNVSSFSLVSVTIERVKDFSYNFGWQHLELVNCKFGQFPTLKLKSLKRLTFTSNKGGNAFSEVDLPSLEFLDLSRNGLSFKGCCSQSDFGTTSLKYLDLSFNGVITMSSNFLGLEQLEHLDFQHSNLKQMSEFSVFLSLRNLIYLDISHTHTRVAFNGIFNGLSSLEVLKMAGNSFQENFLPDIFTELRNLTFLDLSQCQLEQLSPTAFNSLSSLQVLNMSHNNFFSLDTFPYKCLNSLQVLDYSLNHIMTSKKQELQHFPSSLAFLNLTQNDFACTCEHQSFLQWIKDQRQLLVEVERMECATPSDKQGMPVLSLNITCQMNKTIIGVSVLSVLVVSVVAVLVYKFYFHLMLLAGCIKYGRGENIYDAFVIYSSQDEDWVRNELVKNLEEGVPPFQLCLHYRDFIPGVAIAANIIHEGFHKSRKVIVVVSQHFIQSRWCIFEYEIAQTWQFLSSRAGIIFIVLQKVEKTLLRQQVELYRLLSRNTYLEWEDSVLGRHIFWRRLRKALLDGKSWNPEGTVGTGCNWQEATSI

Row | Compound | competitive inhibition of Flag-tagged full-length hRetn binding to hTLR4 (human TLR4) | LPS-promoted surface MD2/TLR4 complex formation (CD14+CD11b+ monocytes; human PBMC, flow cytometry) | LPS binding to CD14+CD11b+ monocytes (CD14+CD11b+ monocytes) | LPS binding to CD14+CD11b+ monocytes (CD14+CD11b+ monocytes; listed as N-pep) | LPS-induced TNFα secretion (human PBMCs) | IL-10 expression after LPS (human PBMCs)
1 | hRetn N-peptide: synthesized hRetn N-terminal peptide (1-23 a.a.), SEQ ID NO: 2 (MEEAINERIQEVAGSLIFRAISS) (listed as Homo sapiens) | sufficient to abrogate binding of full-length hRetn | abrogated | inhibited LPS binding | abrogated the binding of LPS in human PMBCs similar to full-length hRetn | significantly more efficient at suppressing LPS-induced TNFα than full-length hRetn | –
2 | O=C(NCCCNc1nc(Nc2cccc(NC(=O)N3CCCC3)c2)ncc1I)c1cccs1 [TBK1 inhibitor, BX-795, reference compound] | – | – | – | – | significantly reduced LPS-induced TNFα | increased IL-10 expression
